Assay results reported in patent US20110257233A1, “BENZOISOTHIAZOLONES AS INHIBITORS OF PHOSPHOMANNOSE ISOMERASE” (Sanford-Burnham Medical Research Institute, priority 2010, published 2011).
In brackets after ≈: the same amount, converted by molar mass. Read-outs that look alike come from different tables or passages of the source.

Assays:
[1] = target: T1, phosphomannose isomerase (PMI) (Homo sapiens, UniProt P34949); assay: PMI enzyme inhibition assay; assay type: biochemical
T1 sequence (P34949 1-423): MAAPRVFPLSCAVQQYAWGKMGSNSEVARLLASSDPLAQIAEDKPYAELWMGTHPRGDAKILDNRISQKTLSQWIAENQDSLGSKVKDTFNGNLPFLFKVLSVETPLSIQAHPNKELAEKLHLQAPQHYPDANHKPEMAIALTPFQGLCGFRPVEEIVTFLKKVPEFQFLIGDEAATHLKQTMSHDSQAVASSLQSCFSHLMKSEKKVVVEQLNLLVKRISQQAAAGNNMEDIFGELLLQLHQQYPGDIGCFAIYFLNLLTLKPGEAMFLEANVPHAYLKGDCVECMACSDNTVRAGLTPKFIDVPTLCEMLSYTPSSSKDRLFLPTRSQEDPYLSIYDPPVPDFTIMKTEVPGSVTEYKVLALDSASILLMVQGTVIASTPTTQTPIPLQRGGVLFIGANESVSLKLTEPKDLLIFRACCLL

[2] = target: T2, phosphomannomutase 2 (PMM) (Homo sapiens, UniProt O15305); assay: PMM enzyme inhibition assay; assay type: biochemical; settings: for IC50: mean of at least three determinations
T2 sequence (O15305 1-246): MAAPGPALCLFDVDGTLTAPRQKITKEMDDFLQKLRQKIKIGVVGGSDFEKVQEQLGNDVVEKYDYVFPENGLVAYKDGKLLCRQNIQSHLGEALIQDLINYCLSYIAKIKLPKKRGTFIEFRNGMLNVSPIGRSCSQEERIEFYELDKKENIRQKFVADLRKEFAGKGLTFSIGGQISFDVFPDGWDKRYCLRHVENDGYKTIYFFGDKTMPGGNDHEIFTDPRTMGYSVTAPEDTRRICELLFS

[3] = Microsomal stability, mouse; assay type: in vitro ADME; settings: mouse liver microsomes
Text: (§1) ADME (absorption, distribution, metabolism, elimination) provides an efficient means of discovering potential issues with respect to bioavailability and the potential for in vivo efficiency. The microsomal stability assay measures a compound's potential to be metabolized by the liver and can also identify metabolic liabilities. The plasma stability assay gives essential information on whether a compound will be degraded in plasma. Finally, the Parallel Artificial Membrane Permeability Assay (PAMPA) measures compound diffusion rates through an artificial membrane to give valuable information on a compounds potential for intestinal absorption and tissue and cell permeability. [table]

Plasma stability, mouse = assay type: in vitro ADME
Text: as §1

[4] = Microsomal stability, human; assay type: in vitro ADME; settings: human liver microsomes
Text: as §1

[5] = Parallel Artificial Membrane Permeability Assay (PAMPA); assay type: in vitro ADME; settings: diffusion through a lipid membrane
Text: as §1

Plasma stability, human = assay type: in vitro ADME
Text: as §1

[6] = system: Cryptococcus neoformans (ATCC 24067); assay: Microbial in vitro assay 647000; assay type: cell-based
Protocol: The methods employed in this study were adapted from the scientific literature to maximize reliability and reproducibility. The reference standards were run as an integral part of each assay to ensure the validity of the results obtained. The assays were performed under conditions described below. The literature reference(s) for each assay are also provided as follows: Enza Di Modugno, Isabelle […]. […] Antimicrobial Agents Chemotherapy 3: 40-48; […]., Pursiano, […]. and Price, K. E. (1973) In Vitro Activity of the Tribactam GV 104326 against Gram-Positive, Gram-Negative, and Anaerobic Bacteria. Antimicrobial Agents and Chemotherapy, 38: 2362-2368, 1994; Enza Di Modugno, Isabelle […]. […] Antimicrobial Agents Chemotherapy 3: 40-48; and […]., Pursiano, […]. and Price, K. E. (1973) In vitro antibacterial activity of SM-7338, a carbapenem antibiotic with stability to dehydropeptidase I Antimicrobial Agents, Chemotherapy, 33 #2:215-222, 1989. […] Incubation Time/Temp: 2 days @37° C.; […] Time of Assessment: 2 days; Quantitation Method: Turbidity Measurement

[7] = system: Candida albicans (ATCC 10231); assay: Microbial in vitro assay 640000; assay type: cell-based
Protocol: The methods employed in this study were adapted from the scientific literature to maximize reliability and reproducibility. The reference standards were run as an integral part of each assay to ensure the validity of the results obtained. The assays were performed under conditions described below. The literature reference(s) for each assay are also provided as follows: Enza Di Modugno, Isabelle […]. […] Antimicrobial Agents Chemotherapy 3: 40-48; […]., Pursiano, […]. and Price, K. E. (1973) In Vitro Activity of the Tribactam GV 104326 against Gram-Positive, Gram-Negative, and Anaerobic Bacteria. Antimicrobial Agents and Chemotherapy, 38: 2362-2368, 1994; Enza Di Modugno, Isabelle […]. […] Antimicrobial Agents Chemotherapy 3: 40-48; and […]., Pursiano, […]. and Price, K. E. (1973) In vitro antibacterial activity of SM-7338, a carbapenem antibiotic with stability to dehydropeptidase I Antimicrobial Agents, Chemotherapy, 33 #2:215-222, 1989. 640000 Candida albicans (ATCC 10231); Culture Medium: Fluid Sabouraud Medium; […] Incubation Time/Temp: 20 hours @ 37° C.; […] Quantitation Method: Turbidity Measurement.

[8] = system: protein glycosylation (mannose incorporated in proteins); assay: Cellular assay: 3H-mannose incorporated in proteins vs glycolysis; assay type: cell-based
Protocol: A cellular assay was developed and utilized to provide proof-of-concept for the potential of the optimized PMI inhibitors as CDG therapeutics. […] Briefly. cells were preincubated with inhibitors and labeled with 3H-Mannose and 35S-Met/Cys. After washing and lysis, 3H- and 35S amounts were determined in the proteins.

[9] = system: Pseudomonas aeruginosa (ATCC 27853); assay: Microbial in vitro assay 614030; assay type: cell-based; settings: reference standard run with the assay
Protocol: The methods employed in this study were adapted from the scientific literature to maximize reliability and reproducibility. The reference standards were run as an integral part of each assay to ensure the validity of the results obtained. The assays were performed under conditions described below. The literature reference(s) for each assay are also provided as follows: Enza Di Modugno, Isabelle […]. […] Antimicrobial Agents Chemotherapy 3: 40-48; […]., Pursiano, […]. and Price, K. E. (1973) In Vitro Activity of the Tribactam GV 104326 against Gram-Positive, Gram-Negative, and Anaerobic Bacteria. Antimicrobial Agents and Chemotherapy, 38: 2362-2368, 1994; Enza Di Modugno, Isabelle […]. […] Antimicrobial Agents Chemotherapy 3: 40-48; and […]., Pursiano, […]. and Price, K. E. (1973) In vitro antibacterial activity of SM-7338, a carbapenem antibiotic with stability to dehydropeptidase I Antimicrobial Agents, Chemotherapy, 33 #2:215-222, 1989.

[10] = mean of at least three determinations
[11] = reference standard run with the assay

Compound: Cc1ccc(C)c(-n2sc3cc(F)ccc3c2=O)c1 [Compound 17]
- IC50 [1, 10]: 1.1 µM
- IC50 [2]: 7.3 µM

Compound: O=c1c2cc(F)ccc2sn1-c1ccc(F)cc1 [Compound 21, 5-Fluoro-2-(4-fluorophenyl)-2-hydrobenzo[d]isothiazol-3-one]
- Microsomal Stability (% remaining after 1 hour) [3]: 81.24 % remaining
- Plasma Stability (% remaining after 1 hour) (Plasma stability, mouse): 71.4 % remaining
- Microsomal Stability (% remaining after 1 hour) [4]: 24.93 % remaining
- IC50 [2]: > 20 µM
- Permeability [5]: High
- Plasma Stability (% remaining after 1 hour) (Plasma stability, human): 0.0 % remaining

Compound: COc1ccc(-n2sc3ccc(F)cc3c2=O)cc1 [Compound 22, 5-Fluoro-2-(4-methoxyphenyl)-2-hydrobenzo[d]isothiazol-3-one]
- Microsomal Stability (% remaining after 1 hour) [3]: 84.06 % remaining
- Plasma Stability (% remaining after 1 hour) (Plasma stability, mouse): 96.3 % remaining
- Microsomal Stability (% remaining after 1 hour) [4]: 100 % remaining
- IC50 [2]: 9.1 µM
- Permeability [5]: Low
- Plasma Stability (% remaining after 1 hour) (Plasma stability, human): 107.0 % remaining

Compound: O=c1c2cc(F)ccc2sn1-c1ccccc1 [Compound 19, 5-Fluoro-2-phenylbenzo[d]isothiazol-3(2H)-one]
- MIC ([6]; ATCC24067, Cryptococcus neoformans, turbidity, read-out: minimal inhibitory concentration): 1000 µg/mL (≈ 4.08 mM)
- IC50 [1, 10]: 1.3 µM
- IC50 [2]: > 20 µM
- PMM inhibition ([2]; tested up to 20 μM): inactive
- MIC ([7]; ATCC10231, Candida albicans, turbidity, read-out: minimal inhibitory concentration): 3000 µg/mL (≈ 12.2 mM)

Compound: COc1ccc(-n2sc3cc(F)ccc3c2=O)cc1 [Compound 18]
- IC50 [2]: 12.9 µM

Compound: O=c1c2cc(F)ccc2sn1-c1ccc(Cl)cc1 [Compound 24, 2-(4-Chlorophenyl)-5-fluoro-2-hydrobenzo[d]isothiazol-3-one]
- IC50 [1, 10]: 1.8 µM

Compound: Cc1ccccc1-n1sc2cc(F)ccc2c1=O [Compound 16, 6-Fluoro-2-o-tolylbenzo[d]isothiazol-3(2H)-one]
- Microsomal Stability (% remaining after 1 hour) [3]: 90.03 % remaining
- Plasma Stability (% remaining after 1 hour) (Plasma stability, mouse): 117.5 % remaining
- Microsomal Stability (% remaining after 1 hour) [4]: 90 % remaining
- IC50 [1, 10]: 2.9 µM
- fold increase in the amount of mannose incorporated in proteins vs glycolysis ([8]; 25.0 μM): 2.8 fold
- fold increase in the amount of mannose incorporated in proteins vs glycolysis ([8]; 50 μM): 1.7 fold
- fold increase in the amount of mannose incorporated in proteins vs glycolysis ([8]; 12.5 (head prints no unit)): 2.7 fold
- Permeability [5]: Medium
- Plasma Stability (% remaining after 1 hour) (Plasma stability, human): 49.7 % remaining

Compound: COc1cccc(-n2sc3ccccc3c2=O)c1 [Compound 15, 2-(3-Methoxyphenyl)-2-hydrobenzo[d]isothiazol-3-one]
- IC50 [1, 10]: 3.7 µM
- IC50 [2]: > 20 µM

Compound: Cc1ccc(C)c(-n2sc3ccc(F)cc3c2=O)c1 [Compound 20]
- Microsomal Stability (% remaining after 1 hour) [3]: 85.04 % remaining
- Plasma Stability (% remaining after 1 hour) (Plasma stability, mouse): 99.4 % remaining
- Microsomal Stability (% remaining after 1 hour) [4]: 100 % remaining
- IC50 [1, 10]: 1.9 µM
- IC50 [2]: > 20 µM
- fold increase in the amount of mannose incorporated in proteins vs glycolysis ([8]; 25.0 μM): 2.3 fold
- fold increase in the amount of mannose incorporated in proteins vs glycolysis ([8]; 50 μM): 3.2 fold
- fold increase in the amount of mannose incorporated in proteins vs glycolysis ([8]; 12.5 (head prints no unit)): 1.9 fold
- Permeability [5]: Medium
- Plasma Stability (% remaining after 1 hour) (Plasma stability, human): 96.7 % remaining

Compound: COC(=O)c1cccc(-n2sc3ccccc3c2=O)c1 [Compound 9]
- IC50 [1, 10]: 4.9 µM
- IC50 [2]: > 20 µM

Compound: O=c1c2cc(F)ccc2sn1-c1ccccc1F [Compound 23]
- Microsomal Stability (% remaining after 1 hour) [3]: 98.40 % remaining
- Plasma Stability (% remaining after 1 hour) (Plasma stability, mouse): 106.7 % remaining
- Microsomal Stability (% remaining after 1 hour) [4]: 27.66 % remaining
- IC50 [1, 10]: 4.3 µM
- fold increase in the amount of mannose incorporated in proteins vs glycolysis ([8]; 25.0 μM): 0.7 fold
- fold increase in the amount of mannose incorporated in proteins vs glycolysis ([8]; 50 μM): 2.5 fold
- fold increase in the amount of mannose incorporated in proteins vs glycolysis ([8]; 12.5 (head prints no unit)): 9.1 fold
- Permeability [5]: Medium
- Plasma Stability (% remaining after 1 hour) (Plasma stability, human): 35.7 % remaining

Compound: O=c1c2ccccc2sn1-c1cccc(C(F)(F)F)c1 [Compound 5, 2-[3(Trifluoromethyl)phenyl]-2-hydrobenzo[d]isothiazol-3-one]
- IC50 [1, 10]: 3.4 µM
- IC50 [2]: > 20 µM

Compound: Cc1cccc(-n2sc3ccccc3c2=O)c1 [Compound 3, 2-(3-Methylphenyl)-2-hydrobenzo[d]isothiazol-3-one]
- IC50 [1, 10]: 6 µM

Compound: Gentamicin
- CONCURRENT (reference compound data) [9]: 0.3 µg/mL

Compound: CN(C)c1ccc(-n2sc3ccccc3c2=O)cc1 [Compound 12, 2-[4-(Dimethylamino)phenyl]-2-hydrobenzo[d]isothiazol-3-one]
- IC50 [1, 10]: 1.9 µM
- IC50 [2]: 13.3 µM
- fold increase in the amount of mannose incorporated in proteins vs glycolysis ([8]; 50 μM): 1.0 fold

Compound: CCOC(=O)c1ccc(-n2sc3ccccc3c2=O)cc1 [Compound 10]
- IC50 [1, 10]: 7.2 µM

Compound: C[C@@H]1[C@H](O)[C@@H](C)/C=C/C=C/C=C/C=C/C=C/C=C/C=C/[C@H](O[C@@H]2O[C@H](C)[C@@H](O)[C@H](N)[C@@H]2O)C[C@@H]2O[C@](O)(C[C@@H](O)C[C@@H](O)[C@H](O)CC[C@@H](O)C[C@@H](O)CC(=O)O[C@H]1C)C[C@H](O)[C@H]2C(=O)O [Amphotericin B Solubilized, reference compound]
- CONCURRENT (reference compound data) [6, 11]: 0.1 µg/mL
- CONCURRENT (reference compound data) [7, 11]: 0.1 µg/mL

Compound: O=c1c2ccccc2sn1-c1cccc(Cl)c1 [Compound 7, 2(3-Chlorophenyl)-2-hydrobenzo[d]isothiazol-3-one]
- IC50 [1, 10]: 4.8 µM

Compound: O=c1c2ccccc2sn1-c1ccccc1 [Compound 1, 2-Phenyl-2-hydrobenzo[d]isothiazol-3-one]
- IC50 [1]: 6.4 µM

Compound: Cc1ccc(-n2sc3ccccc3c2=O)cc1 [Compound 4, 2-(4-Methylphenyl)-2-hydrobenzo[d]isothiazol-3-one]
- IC50 [1, 10]: 3.6 µM
